In US8338482B2, “Modulating notch1 signaling pathway for treating neuroendocrine tumors” (Wisconsin Alumni Research Foundation, priority 2007, dated 2012):

What was measured:
neuroblastoma (NB) cells = details: cited from earlier work
[1] = tested on: BON human GI carcinoid cancer cells; assay: Western blot analysis of GI carcinoid cells; assay type: cell-based
Protocol: Cell Culture BON human GI carcinoid cancer cells, kindly provided by Drs. B. Mark Evers and Courtney M. Townsend, Jr.
Total protein concentrations were quantified with a bicinchoninic acid assay kit (Pierce Biotechnology, Rockford, Ill., USA). Denatured cellular extracts were resolved by SDS-PAGE, transferred to nitrocellulose membranes (Schleicher and Schuell, Keene, N.H., USA), blocked in milk, and incubated with appropriate antibodies. The antibody dilutions were: 1:1,000 for Notch1 (Santa Cruz Biotechnology, Santa Cruz, Calif., USA), mammalian achaete-scute homolog 1 (ASCL1; BD Biosciences, San Diego, Calif., USA), chromogranin A (Zymed Laboratories, San Francisco, Calif., USA), and cyclin D1 (Cell Signaling Technology, Danvers, Mass., USA), 1:2,000 for p21 (Cell Signaling Technology) and p27 (Santa Cruz Biotechnology), and 1:10,000 for glyceraldehyde-3-phosphate dehydrogenase (G3PDH; Trevigen, Gaithersburg, Md., USA). Horseradish peroxidase conjugated goat anti-rabbit or goat anti-mouse secondary antibodies (Pierce Biotechnology) were used depending on the source of the primary antibody. For visualization of the protein signal, Immunstar (Bio-Rad Laboratories, Hercules, Calif., USA) or SuperSignal West Femto (Pierce Biotechnology) kits were used per the manufacturer's instructions.
Cell Culture BON human gastrointestinal (GI) carcinoid tumor cells, kindly provided by Drs. B. Mark Evers and Courtney M. Townsend, Jr.
Total protein concentrations were quantified with a bicinchoninic acid assay kit (Pierce Biotechnology, Rockford, Ill.). Denatured cellular extracts were resolved by SDS-PAGE, transferred onto nitrocellulose membranes (Schleicher and Schuell, Keene, N H), blocked in milk, and incubated with appropriate antibodies. The antibody dilutions were: 1:1,000 for Notch1 (Santa Cruz Biotechnology, Santa Cruz, Calif.), mammalian achaete-scute homolog 1 (ASCL1; BD Biosciences, San Diego, Calif.), chromogranin A (Zymed Laboratories, San Francisco, Calif.), and cyclin D1 (Cell Signaling Technology, Danvers, Mass.), 1:2,000 for p21 (Cell Signaling Technology) and p27 (Santa Cruz Biotechnology), and 1:10,000 for glyceraldehyde-3-phosphate dehydrogenase (G3PDH; Trevigen, Gaithersburg, Md.). Horseradish peroxidase conjugated goat anti-rabbit or goat anti-mouse secondary antibodies (Pierce Biotechnology) were used depending on the source of the primary antibody. For visualization of the protein signal, Immunstar (Bio-Rad Laboratories, Hercules, Calif.) or SuperSignal West Femto (Pierce Biotechnology) kits were used per the manufacturer's instructions.

Notch1 = assay: CBF1 binding site luciferase reporter assay; assay type: cell-based, human; details: GI carcinoid cells, VPA 48 hours
Protocol: Luciferase Reporter Assays GI carcinoid tumor cells were transiently transfected with luciferase constructs as previously described (Kunnimalaiyaan, M. et al., Conservation of the Notch1 signaling pathway in gastrointestinal carcinoid cells A J Physiol Gastrointest Liver Physiol 2005; 289:G636-642). Wild-type (4xwtCBF1Luc; 2 μg) or mutant (4xmutCBF1Luc; 2 μg) CBF1-luciferase reporter plasmids were co-transfected with CMV-β-gal (0.5 μg) (Hsieh J J et al., Truncated Mammalian Notch1 Activates CBF1/RBPJk-Repressed Genes by a Mechanism Resembling That of Epstein-Barr Virus EBNA2. Mol Cell Biol 1996; 16:952-959). In experiments with the γ-secretase inhibitor, N-[N-(3,5-difluorophenacetyl)-L-alanyl]-S-phenylglycine t-butyl ester (DAPT; EMD Biosciences, Darmstadt, Germany), to inhibit Notch1 cleavage and activation, cells were pretreated for 45 minutes with DAPT (50 μM) then treated with 4 mM VPA. […] Luciferase levels were measured using a Monolight 2010 Luminometer (Analytical Luminescence Laboratory, San Diego, Calif.). […]

## CCCC(CCC)C(=O)O [VPA, 2-propylpentanoic acid]
Neuroblastoma (NB) cells
  cell death: increased cell death
  levels of intracellular Notch-1 and Hes-1: increased levels
[1]; VPA
  ASCL1 protein: dose-dependent decrease
[1]; VPA 0-4 mM, 2 days
  full-length Notch1 and NICD: increase
[1]; VPA 1 mM
  protein levels of p21 and p27: increase in protein levels
[1]; VPA 4 mM, 4 days
  cyclin D1 level: almost undetectable
[1]; VPA, two days
  protein levels of CgA: decreased
Notch1
  increase in CBF1 luciferase activity: 5 fold
